From patent US7772183B2 (Bristol-Myers Squibb Company, priority 2005, dated 2010)
pEC50, pIC50: −log10 of the molar value.

Tests used:
[1] = tested on: HCV replicon in HUH-7 cells; assay: HCV replicon FRET assay; assay type: cell-based, Hepatitis C virus (strain 1b); details: Hepatitis C virus, Huh-7; HCV replicon, for compounds tested; read-out: EC50 Range
Source text: An HCV replicon whole cell system was established as described by Lohmann V, Komer F, Koch J, Herian U, Theilmann L, Bartenschlager R., Science 285(5424):110-3 (1999). This system enabled us to evaluate the effects of our HCV Protease compounds on HCV RNA replication. Briefly, using the HCV strain 1b sequence described in the Lohmann paper (Assession number: AJ238799), an HCV cDNA was synthesized by Operon Technologies, Inc. (Alameda, Calif.), and the full-length replicon was then assembled in plasmid pGem9zf(+) (Promega, Madison, Wis.) using standard molecular biology techniques. The replicon consists of (i) the HCV 5′ UTR fused to the first 12 amino acids of the capsid protein, (ii) the neomycin phosphotransferase gene (neo), (iii) the IRES from encephalomyocarditis virus (EMCV), and (iv) HCV NS3 to NS5B genes and the HCV 3′ UTR. Plasmid DNAs were linearized with Scal and RNA transcripts were synthesized in vitro using the T7 MegaScript transcription kit (Ambion, Austin, Tex.) according to manufacturer's directions. In vitro transcripts of the cDNA were transfected into the human hepatoma cell line, HUH-7. […] Resulting cell lines were characterized for positive and negative strand RNA production and protein production over time.
The HCV replicon FRET assay was developed to monitor the inhibitory effects of compounds described in the disclosure on HCV viral replication. HUH-7 cells, constitutively expressing the HCV replicon, were grown in Dulbecco's Modified Eagle Media (DMEM) (Gibco-BRL) containing 10% Fetal calf serum (FCS) (Sigma) and 1 mg/ml G418 (Gibco-BRL). Cells were seeded the night before (1.5×10^4 cells/well) in 96-well tissue-culture sterile plates. Compound and no compound controls were prepared in DMEM containing 4% FCS, 1:100 Penicillin/Streptomysin (Gibco-BRL), 1:100 L-glutamine and 5% DMSO in the dilution plate (0.5% DMSO final concentration in the assay). Compound/DMSO mixes were added to the cells and incubated for 4 days at 37° C. After 4 days, cells were first assessed for cytotoxicity using alamar Blue (Trek Diagnotstic Systems) for a CC50 reading. The toxicity of compound (CC50) was determined by adding 1/10th volume of alamar Blue to the media incubating the cells. After 4 hours, the fluorescence signal from each well was read, with an excitation wavelength at 530 nm and an emission wavelength of 580 nm, using the Cytofluor Series 4000 (Perspective Biosystems). Plates were then rinsed thoroughly with Phosphate-Buffered Saline (PBS) (3 times 150 μl). The cells were lysed with 25 μl of a lysis assay reagent containing an HCV protease substrate (5× cell Luciferase cell culture lysis reagent (Promega #E153A) diluted to 1× with distilled water, NaCl added to 150 mM final, the FRET peptide substrate (as described for the enzyme assay above) diluted to 10 μM final from a 2 mM stock in 100% DMSO. […]. The plate was then placed into the Cytofluor 4000 instrument which had been set to 340 nm excitation/490 nm emission, automatic mode for 21 cycles and the plate read in a kinetic mode. EC50 determinations were carried out as described for the IC50 determinations.

[2] = target: T1, HCV NS3/4A protease complex, BMS strain (UniProt P27958, species not given/STRAIN_BMS); assay: FRET peptide assay to monitor HCV NS3/4A proteolytic activity (BMS strain); assay type: biochemical, Hepatitis C virus (genotype 1a); details: NS3/4A BMS strain; read-out: IC50 Range
T1 construct: said of H77 and J4L6S; fused on or other part: A three-lysine solubilising tail at the C-terminus of NS4A and a His tag (pET21b, Ni-NTA purification)
Source text: HCV NS3 protease complexes, derived from the BMS strain, H77 strain or J4L6S strain, were generated, as described below. These purified recombinant proteins were generated for use in a homogeneous assay (see below) to provide an indication of how effective compounds of the present disclosure would be in inhibiting HCV NS3 proteolytic activity.
Serum from an HCV-infected patient was obtained from Dr. T. Wright, San Francisco Hospital. An engineered full-length cDNA (compliment deoxyribonucleic acid) template of the HCV genome (BMS strain) was constructed from DNA fragments obtained by reverse transcription-PCR (RT-PCR) of serum RNA (ribonucleic acid) and using primers selected on the basis of homology between other genotype 1a strains. From the determination of the entire genome sequence, a genotype 1a was assigned to the HCV isolate according to the classification of Simmonds et al. (See P Simmonds, K A Rose, S Graham, S W Chan, F McOmish, B C Dow, E A Follett, P L Yap and H Marsden, J. Clin. Microbiol., 31(6), 1493-1503 (1993)). […] The infectious clones, H77 (1a genotype) and J4L6S (1b genotype) were obtained from R. Purcell (NIH) and the sequences are published in Genbank (AAB67036, see Yanagi, M., Purcell, R. H., Emerson, S. U. and Bukh, J. Proc. Natl. Acad. Sci. U.S.A. 94(16), 8738-8743 (1997); AF054247, see Yanagi, M., St Claire, M., Shapiro, M., Emerson, S. U., Purcell, R. H. and Bukh, J, Virology 244 (1), 161-172. (1998)).
The H77 and J4L6S strains were used for production of recombinant NS3/4A protease complexes. DNA encoding the recombinant HCV NS3/4A protease complex (amino acids 1027 to 1711) for these strains were manipulated as described by P. Gallinari et al. (see Gallinari P, Paolini C, Brennan D, Nardi C, Steinkuhler C, De Francesco R. Biochemistry. 38(17):5620-32, (1999)). Briefly, a three-lysine solubilizing tail was added at the 3′-end of the NS4A coding region. The cysteine in the P1 position of the NS4A-NS4B cleavage site (amino acid 1711) was changed to a glycine to avoid the proteolytic cleavage of the lysine tag. Furthermore, a cysteine to serine mutation was introduced by PCR at amino acid position 1454 to prevent the autolytic cleavage in the NS3 helicase domain. The variant DNA fragment was cloned in the pET21b bacterial expression vector (Novagen) and the NS3/4A complex was expressed in Escherichia coli strain BL21 (DE3) (Invitrogen) following the protocol described by P. Gallinari et al. (see Gallinari P, Brennan D, Nardi C, Brunetti M, Tomei L, Steinkuhler C, De Francesco R., J Virol. 72(8):6758-69 (1998)) with modifications. Briefly, the NS3/4A protease complex expression was induced with 0.5 mM Isopropyl β-D-1-thiogalactopyranoside (IPTG) for 22 hours (h) at 20° C. A typical fermentation (1 Liter (L)) yielded approximately 10 grams (g) of wet cell paste. The cells were resuspended in lysis buffer (10 mL/g) consisting of 25 mM N-(2-Hydroxyethyl)Piperazine-N′-(2-Ethane Sulfonic acid) (HEPES), pH 7.5, 20% glycerol, 500 mM Sodium Chloride (NaCl), 0.5% Triton X-100, 1 microgram/milliliter (“μg/mL”) lysozyme, 5 mM Magnesium Chloride (MgCl2), 1 μg/ml Dnasel, 5 mM β-Mercaptoethanol (βME), Protease inhibitor-Ethylenediamine Tetraacetic acid (EDTA) free (Roche), homogenized and incubated for 20 minutes (min) at 4° C. The homogenate was sonicated and clarified by ultra-centrifugation at 235000 g for 1 h at 4° C. Imidazole was added to the supernatant to a final concentration of 15 mM and the pH adjusted to 8.0. The crude protein extract was loaded on a Nickel-Nitrilotriacetic acid (Ni-NTA) column pre-equilibrated with buffer B (25 mM HEPES, pH 8.0, 20% glycerol, 500 mM NaCl, 0.5% Triton X-100, 15 mM imidazole, 5 mM βME). The sample was loaded at a flow rate of 1 mL/min. The column was washed with 15 column volumes of buffer C (same as buffer B except with 0.2% Triton X-100). The protein was eluted with 5 column volumes of buffer D (same as buffer C except with 200 mM Imidazole). […]

T1 sequence (P27958 1027-1657, change not shown, one chain of several): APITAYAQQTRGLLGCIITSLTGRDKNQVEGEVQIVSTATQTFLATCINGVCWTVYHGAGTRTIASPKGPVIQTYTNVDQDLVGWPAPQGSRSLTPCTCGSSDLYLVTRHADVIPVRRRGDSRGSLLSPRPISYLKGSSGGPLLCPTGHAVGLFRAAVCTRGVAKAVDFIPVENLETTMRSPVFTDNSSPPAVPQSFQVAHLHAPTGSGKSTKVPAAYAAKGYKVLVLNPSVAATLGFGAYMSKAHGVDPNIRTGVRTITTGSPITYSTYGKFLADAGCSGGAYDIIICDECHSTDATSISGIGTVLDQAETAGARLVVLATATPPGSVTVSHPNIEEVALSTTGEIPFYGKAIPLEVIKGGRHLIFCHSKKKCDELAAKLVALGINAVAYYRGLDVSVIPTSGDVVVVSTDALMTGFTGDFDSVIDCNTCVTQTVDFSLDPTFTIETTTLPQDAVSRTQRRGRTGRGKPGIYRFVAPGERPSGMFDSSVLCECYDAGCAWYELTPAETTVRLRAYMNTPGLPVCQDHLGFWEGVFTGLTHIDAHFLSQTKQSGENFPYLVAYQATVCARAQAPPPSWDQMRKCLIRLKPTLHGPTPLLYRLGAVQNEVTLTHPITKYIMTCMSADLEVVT

## CC(C)(C)OC(=O)N[C@H]1CCCOC/C=C\[C@@H]2C[C@@]2(C(=O)NS(=O)(=O)C2CC2)NC(=O)[C@@H]2C[C@@H](OC(=O)C3CCCCC3)CN2C1=O [Compound 3, 18-cyclohexanecarbonyloxy-14-tert-butoxycarbonylamino-4-cyclopropylsulfonylaminocarbonyl-2,15-dioxo-3,16-diaza-10-oxatricyclo-[14.3.0.0^4,6]-nonadec-7-ene]
[1]
  pEC50: < 6.00
[2]
  pIC50: > 7.00
other
  melting point: 128 to 130 °C

## CC(C)(C)OC(=O)N[C@H]1CCCOC/C=C\[C@@H]2C[C@@]2(C(=O)NS(=O)(=O)C2CC2)NC(=O)[C@@H]2C[C@@H](OC(=O)C(C)(C)C)CN2C1=O [Compound 4, 18-pivaloyloxy-14-tert-butoxycarbonylamino-4-cyclopropylsulfonylaminocarbonyl-2,15-dioxo-3,16-diaza-10-oxatricyclo-[14.3.0.0^4,6]-nonadec-7-ene]
[1]
  pEC50: < 6.00
[2]
  pIC50: > 7.00
other
  melting point: 143 to 145 °C

## CC(C)(C)OC(=O)N[C@H]1CCCOC/C=C\[C@@H]2C[C@@]2(C(=O)NS(=O)(=O)C2CC2)NC(=O)[C@@H]2C[C@@H](OC(=O)CC3CCCCC3)CN2C1=O [Compound 6, 18-cyclohexaneacetyloxy-14-tert-butoxycarbonylamino-4-cyclopropylsulfonylaminocarbonyl-2,15-dioxo-3,16-diaza-10-oxatricyclo-[14.3.0.0^4,6]-nonadec-7-ene]
[1]
  pEC50: < 6.00
[2]
  pIC50: > 7.00
other
  melting point: 107 to 109 °C

## COc1ccccc1C(=O)O[C@@H]1C[C@H]2C(=O)N[C@]3(C(=O)NS(=O)(=O)C4CC4)C[C@H]3/C=C\COCCC[C@H](NC(=O)OC(C)(C)C)C(=O)N2C1 [Compound 7, 18-(2-methoxybenzoyloxy)-14-tert-butoxycarbonylamino-4-cyclopropylsulfonylaminocarbonyl-2,15-dioxo-3,16-diaza-10-oxa-tricyclo-[14.3.0.0^4,6]-nonadec-7-ene]
[1]
  pEC50: < 6.00
[2]
  pIC50: > 7.00
other
  melting point: 144 to 146 °C

## COc1ccc(C(=O)O[C@@H]2C[C@H]3C(=O)N[C@]4(C(=O)NS(=O)(=O)C5CC5)C[C@H]4/C=C\COCCC[C@H](NC(=O)OC(C)(C)C)C(=O)N3C2)c(OC)c1 [Compound 8, 18-(2,4-dimethoxybenzoyloxy)-14-tert-butoxycarbonylamino-4-cyclopropylsulfonylaminocarbonyl-2,15-dioxo-3,16-diaza-10-oxatricyclo-[14.3.0.0^4,6]-nonadec-7-ene]
[1]
  pEC50: 6.00 to 7.00
[2]
  pIC50: > 7.00
other
  melting point: 122 to 124 °C

## COc1cccc(C(=O)O[C@@H]2C[C@H]3C(=O)N[C@]4(C(=O)NS(=O)(=O)C5CC5)C[C@H]4/C=C\COCCC[C@H](NC(=O)OC(C)(C)C)C(=O)N3C2)c1 [Compound 9, 18-(3-methoxybenzoyloxy)-14-tert-butoxycarbonylamino-4-cyclopropylsulfonylaminocarbonyl-2,15-dioxo-3,16-diaza-10-oxatricyclo-[14.3.0.0^4,6]-nonadec-7-ene]
[1]
  pEC50: 6.00 to 7.00
[2]
  pIC50: > 7.00
other
  melting point: 149 to 151 °C

## COc1ccc(C(=O)O[C@@H]2C[C@H]3C(=O)N[C@]4(C(=O)NS(=O)(=O)C5CC5)C[C@H]4/C=C\COCCC[C@H](NC(=O)OC(C)(C)C)C(=O)N3C2)cc1 [Compound 10, 18-(4-methoxybenzoyloxy)-14-tert-butoxycarbonylamino-4-cyclopropylsulfonylaminocarbonyl-2,15-dioxo-3,16-diaza-10-oxatricyclo-[14.3.0.0^4,6]-nonadec-7-ene]
[1]
  pEC50: 6.00 to 7.00
[2]
  pIC50: > 7.00
other
  melting point: 145 to 147 °C

## CC(C)(C)OC(=O)N[C@H]1CCCOC/C=C\[C@@H]2C[C@@]2(C(=O)NS(=O)(=O)C2CC2)NC(=O)[C@@H]2C[C@@H](OC(=O)c3ccc(-c4ccccc4)cc3)CN2C1=O [Compound 11, 18-(4-biphenylcarbonyloxy)-14-tert-butoxycarbonylamino-4-cyclopropylsulfonylaminocarbonyl-2,15-dioxo-3,16-diaza-10-oxatricyclo-[14.3.0.0^4,6]-nonadec-7-ene]
[1]
  pEC50: > 7.00
[2]
  pIC50: > 7.00
other
  melting point: 160 to 162 °C

## CC(C)(C)OC(=O)N[C@H]1COCCC/C=C\[C@@H]2C[C@@]2(C(=O)NS(=O)(=O)C2CC2)NC(=O)[C@@H]2C[C@@H](OC(=O)c3ccccc3)CN2C1=O [Compound 12, 18-benzoyloxy-14-tert-butoxycarbonylamino-4-cyclopropylsulfonylaminocarbonyl-2,15-dioxo-3,16-diaza-12-oxatricyclo-[14.3.0.0^4,6]-nonadec-7-ene]
[1]
  pEC50: 6.00 to 7.00
[2]
  pIC50: > 7.00
other
  melting point: 135 to 137 °C
